Literature values, collected in US20040259850A1, “Method for treating or preventing symptoms of hormonal variation including hot flashes” (priority 2001, published 2004).

Legend:
hot flashes in patients = conditions: cited from earlier work; for amelioration of hot flashes, general statement: comparison of clonidine with estrogen
[1] = as stated in the background; cited from earlier work

| Compound | amelioration of hot flashes, general statement (hot flashes in patients) | side effects [1] | other results |
| --- | --- | --- | --- |
| CN1CCN2c3ncccc3Cc3ccccc3C2C1 (centres unmarked) [Mirtazapine] | – | – | effect on hot flushes and perspiration bouts (hot flashes in patients; four case reports (Waldinger et al. 2000)): appears to have an ameliorating effect |
| Clc1cccc(Cl)c1N=C1NCCN1 [clonidine] | only mildly ameliorates hot flashes | – | effect on frequency and severity of hot flashes (hot flashes in patients; transdermal, tamoxifen-treated women (Goldberg et al. 1994)): only a moderate effect |
| CC(=O)O[C@]1(C(C)=O)CC[C@H]2[C@@H]3C=C(C)C4=CC(=O)CC[C@]4(C)[C@H]3CC[C@@]21C [megestrol acetate] | – | chronic adrenal insufficiency can be a side effect | effect on frequency of hot flashes (hot flashes in patients; low dose oral, men and women, short term study (Loprinzi et al. 1994)): reduce the frequency of hot flashes |
| COc1ccc(C(CN(C)C)C2(O)CCCCC2)cc1 (centres unmarked) [venlafaxine] | – | mouth dryness, decreased appetite, nausea and constipation | effect on hot flashes (hot flashes in patients; early studies, survivors of breast cancer (Loprinzi et al. 2000)): effective non-hormonal method to diminish hot flashes |
| estrogen | can virtually eliminate them | – | – |
